Measured values taken from publication PMC10221314 (Pharmaceuticals, 2023).
Entries after “also recorded” stand apart in the source; their conditions may differ.

Experiments:
[1] = system: LX-2 cells; experiment: Western blot of liver-fibrosis-associated proteins in LX-2 cells and HSC-T6 cells; format: cell-based; conditions: 20 μM
Procedure: The total protein concentration in cell and liver tissue lysates was determined using a BCA kit (Beyotime Biotechnology, P0009). Following immune precipitation with appropriate antibodies overnight at 4 °C and incubation with Protein A/G Plus-agarose (Santa Cruz Biotechnology, sc-2003), immunocomplexes or lysates were subjected to SDS-PAGE gel electrophoresis and transferred onto PVDF membranes. Target proteins were detected using specific primary antibodies and an appropriate secondary antibody, with electrochemiluminescence carried out according to the manufacturer’s instructions with a Tanon 5200 imaging system (Shanghai, China). The internal control utilized was GADPH.
(A–E) The LX-2 cells underwent a 24 h treatment of 2 ng·mL^−1 TGFβ1, with or without varying concentrations of candidate compounds, following FBS starvation. […] GAPDH/GAPDH was used as the loading control. The mean ± SD values were obtained from three independent assays. […] ANOVA was followed by Tukey’s test for statistical analysis.

[2] = system: RXRα, RXRβ, RXRγ, LXRα, LXRβ, PXR, PPARα, PPARβ, PPARγ, and GPBAR; experiment: NR selectivity one-hybrid assay in HEK-293T cells (panel of metabolic NRs); format: cell-based
Procedure: (§1) To assess the compound’s specificity, the mammalian one-hybrid assay was conducted. In this assay, HEK-293T cells were co-transfected with a fusion plasmid of Gal4 DBD-NR LBD (comprising RXRα, RXRβ, RXRγ, PPARα, PPARβ, PPARγ, LXRα, LXRβ, GPBAR, and PXR) and the UAS-TK-Luc reporter, followed by treatment with various concentrations of the compound. The positive control consisted of the corresponding nuclear receptor agonist, and the concentration used in the experiment was set to the EC50 of the agonist.
(§2) Figure 3 Compound 10b selectively antagonized FXR. The impact of compound 10b on various NRs was evaluated using a […] one-hybrid assay in HEK-293T cells. The cells were transiently co-transfected with a fusion plasmid of Gal4 DBD-NR-LBD, which included PPARα, PPARβ, PPARγ, RXRα, RXRβ, RXRγ, LXRα, LXRβ, GPBAR, PXR, and FXR, in combination with the UAS-TK-Luc reporter. […] The values are expressed as the means ± SE of three independent experiments. *: p < 0.05 vs. RA (relative agonist).

[3] = target: T1, PPARα (Homo sapiens, UniProt Q07869); experiment: NR selectivity one-hybrid assay in HEK-293T cells (PPARα); format: cell-based; conditions: activated by fenofibrate
T1 construct: a fusion plasmid of Gal4 DBD-NR LBD (comprising RXRα, RXRβ, RXRγ, PPARα, PPARβ, PPARγ, LXRα, LXRβ, GPBAR, and PXR); expressed in transfected cells; host or cells: HEK-293T
T1 sequence (Q07869 239-466 limits assumed): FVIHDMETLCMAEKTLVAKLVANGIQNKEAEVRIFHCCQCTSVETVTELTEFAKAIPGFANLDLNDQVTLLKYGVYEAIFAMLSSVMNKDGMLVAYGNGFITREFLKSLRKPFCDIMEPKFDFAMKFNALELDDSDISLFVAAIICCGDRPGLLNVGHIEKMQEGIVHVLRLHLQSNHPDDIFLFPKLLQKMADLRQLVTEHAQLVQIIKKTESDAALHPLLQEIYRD
Procedure: as §1, §2

[4] = target: T2, FXR (Homo sapiens, UniProt Q96RI1); experiment: NR selectivity one-hybrid assay in HEK-293T cells (FXR); format: cell-based; conditions: FXR agonist CDCA (50 μM)
T2 construct: a fusion plasmid of Gal4 DBD-NR-LBD, which included PPARα, PPARβ, PPARγ, RXRα, RXRβ, RXRγ, LXRα, LXRβ, GPBAR, PXR, and FXR; expressed in transfected cells; host or cells: HEK-293T
T2 sequence (Q96RI1 262-486 limits assumed): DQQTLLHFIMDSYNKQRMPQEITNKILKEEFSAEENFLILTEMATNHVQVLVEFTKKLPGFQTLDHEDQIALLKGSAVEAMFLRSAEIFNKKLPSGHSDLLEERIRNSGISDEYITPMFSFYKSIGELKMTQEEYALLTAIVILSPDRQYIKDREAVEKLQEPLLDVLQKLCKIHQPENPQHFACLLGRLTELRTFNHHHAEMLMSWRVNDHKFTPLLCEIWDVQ
Procedure: as §1, §2

[5] = Stability of compound 10b in mouse plasma at 37 °C (HPLC); format: in vitro ADME; design: recovery at 6 h / recovery at 48 h: dose or concentration left out as unconfirmed; conditions: for Mass of 10b extracted from mouse plasma: theoretical mass 38.5 μg
Procedure: 3. Stability test of compound 10b
To preliminarily determine the stability of compound 10b in a biological environment, an in vitro experimental verification method was employed. The trace compound was dissolved in mouse plasma to simulate the biological environment.
Samples were taken at different time intervals at 37 °C, and the content of the compound was determined by HPLC C18 analytical column. The peak area of the absorption at 220 nm was utilized for content calculation.
The standard curve shown in Fig. S1 can be plotted using the peak area and the mass of compound 10b in the corresponding volume of the solution. The relationship is y = 23.253x+ 100.67 (R2 = 0.9994), which meets linearity requirements and can be used for subsequent operations.
Fig. S1. The relationship curve between the absorption peak area and mass of compound 10b at 220 […]
Subsequently, a mouse with a body weight of 20 g and blood volume of 1 mL was calculated based on the subsequent in vivo experiment’s dosage (100 mg·Kg-1).
Assuming 100% absorption, the converted plasma drug concentration is 2 mg·mL -1.
Based on the calculation, 0.5 mg of 10b was added to […] of mouse plasma to prepare a mixed solution. The plasma was then processed after 1h, 6h, 12 h, 24 h, and 48 h, respectively. The compound content in the sample was compared to the initial content with UV absorption and retention time (t = 6.5 min). […]
significant decrease in the content of 10b was observed between 0 to 48 hours, […]

SMILES: CC1(C)CCC2(C(=O)O)CCC3(C)C(C(OC(=O)CCC(NC(=O)OC(C)(C)C)C(=O)OC(C)(C)C)CC4C5(C)CCC(O)C(C)(C)C5CCC43C)C2C1 [Compound 10b, 3β-hydroxy-12β-(4′-((tert-butoxycarbonyl)amide)-5′-(tert-butoxy)-L-glutamte)oxy-13H-olean-28-oic acid]
- content of protein TGFβ1 [1]: reduced
- content of protein TIMP1 [1]: reduced
- content of protein a-SMA [1]: reduced
- agonistic effect for tested NRs or GPBAR [2]: no agonistic effect
- antagonistic effects against PPARα [3]: 10–20%
- antagonistic effects against FXR [4]: > 90%
- recovery at 0 h, 0.0025 mg/mL ([5]; 0 h, read-out: Recovery rate): 68%
- Mass of 10b extracted from mouse plasma ([5]; 0 h): 26.2 µg
- content of 10b in mouse plasma (stability) ([5]; 0 to 48 h): existed stably in mouse plasma; also recorded: remained almost unchanged
- recovery at 1 h, 0.0025 mg/mL ([5]; 1 h, read-out: Recovery rate): 70.9%
- Mass of 10b extracted from mouse plasma ([5]; 1 h): 27.3 µg
- recovery at 6 h ([5]; 6 h, read-out: Recovery rate): 75.8%
- Mass of 10b extracted from mouse plasma ([5]; 6 h): 29.2 µg
- recovery at 12 h, 0.0025 mg/mL ([5]; 12 h, read-out: Recovery rate): 63.4%
- Mass of 10b extracted from mouse plasma ([5]; 12 h): 24.4 µg
- recovery at 24 h, 0.0025 mg/mL ([5]; 24 h, read-out: Recovery rate): 68.5%
- Mass of 10b extracted from mouse plasma ([5]; 24 h): 26.4 µg
- recovery at 48 h ([5]; 48 h, read-out: Recovery rate): 76.6%
- Mass of 10b extracted from mouse plasma ([5]; 48 h): 29.5 µg
